Experiments:
Type in all cases: in vivo
barnyardgrass [1] = assay: Test Example 1: herbicidal effects in preemergence treatment under submerged conditions; conditions: dose 2.52 g/a
In short: (§1)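 Submerged conditions, 4 cm water over alluvial soil. Weeds sown and 2.5-leaf rice transplanted; compound applied preemergence to water surface, doses in g per are. Greenhouse, 25 to 30° C., three weeks, then 0–5 mortality rating.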

bulrush [2] = assay: as above; conditions: dose 2.52 g/a
In short: as §1

ducksalad [3] = assay: as above; conditions: dose 2.52 g/a
In short: as §1

transplanted rice = assay: Test Example 1: preemergence treatment under submerged conditions, effect on crop; conditions: dose 2.52 g/a
In short: as §1

barnyardgrass [4] = assay: Test Example 2: herbicidal effects during the vegetation period under submerged conditions; conditions: treatment during the vegetation period under submerged conditions; dose 2.52 g/a
In short: (§2)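 Barnyardgrass, bulrush and ducksalad were co-sown in alluvial soil flooded to 4 cm and grown in a greenhouse at 25 to 30° C. At the 1- or 2-leaf stage, water-diluted emulsifiable concentrates went onto the water surface at set doses (g/a). Herbicidal effect was scored three weeks later on a graded scale.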

bulrush [5] = assay: as above; conditions: treatment during the vegetation period under submerged conditions; dose 2.52 g/a
In short: as §2

ducksalad [6] = assay: as above; conditions: treatment during the vegetation period under submerged conditions; dose 2.52 g/a
In short: as §2

Italian ryegrass [7] = assay: Test Example 3: herbicidal effects in soil treatment; conditions: dose 6.3 g/a
In short: (§3)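 Seeds were sown in sterilized diluvial soil and covered with about 1.5 cm of soil. Compounds, formulated as emulsifiable concentrates and diluted with water, were sprayed evenly over the soil surface at set doses in g/a. Herbicidal effect was scored on a rating scale three weeks later.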

barnyardgrass [8] = assay: as above; conditions: dose 6.3 g/a
In short: as §3

common chickweed [9] = assay: as above; conditions: dose 6.3 g/a
In short: as §3

common lambsquater [10] = assay: as above; conditions: dose 6.3 g/a
In short: as §3

common ragweed [11] = assay: as above; conditions: dose 6.3 g/a
In short: as §3

giant foxtail [12] = assay: as above; conditions: dose 6.3 g/a
In short: as §3

large crabgrass [13] = assay: as above; conditions: dose 6.3 g/a
In short: as §3

posumbu knotweed [14] = assay: as above; conditions: dose 6.3 g/a
In short: as §3

redroot pigweed [15] = assay: as above; conditions: dose 6.3 g/a
In short: as §3

velvetleaf [16] = assay: as above; conditions: dose 6.3 g/a
In short: as §3

water foxtail [17] = assay: as above; conditions: dose 6.3 g/a
In short: as §3

wild oat [18] = assay: as above; conditions: dose 6.3 g/a
In short: as §3

Italian ryegrass [19] = assay: Test Example 4: herbicidal effect in foliage treatment; conditions: dose 6.3 g/a, three weeks after application
In short: (§4)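 14-day greenhouse-grown plants (25–30° C) sprayed on foliage with diluted EC; dose as g/a; effect graded after 3 weeks.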

barnyardgrass [20] = assay: as above; conditions: dose 6.3 g/a, three weeks after application
In short: as §4

beadstraw = assay: as above; conditions: dose 6.3 g/a, three weeks after application
In short: as §4

common chickweed [21] = assay: as above; conditions: dose 6.3 g/a, three weeks after application
In short: as §4

common lambsquater [22] = assay: as above; conditions: dose 6.3 g/a, three weeks after application
In short: as §4

common ragweed [23] = assay: as above; conditions: dose 6.3 g/a, three weeks after application
In short: as §4

giant foxtail [24] = assay: as above; conditions: dose 6.3 g/a, three weeks after application
In short: as §4

large crabgrass [25] = assay: as above; conditions: dose 6.3 g/a, three weeks after application
In short: as §4

posumbu knotweed [26] = assay: as above; conditions: dose 6.3 g/a, three weeks after application
In short: as §4

redroot pigweed [27] = assay: as above; conditions: dose 6.3 g/a, three weeks after application
In short: as §4

velvetleaf [28] = assay: as above; conditions: dose 6.3 g/a, three weeks after application
In short: as §4

water foxtail [29] = assay: as above; conditions: dose 6.3 g/a, three weeks after application
In short: as §4

wild oat [30] = assay: as above; conditions: dose 6.3 g/a, three weeks after application
In short: as §4

Compound: CCOC(=O)N(c1ccccc1CN1CCS(=O)(=O)CC1=O)S(=O)(=O)C(F)(F)F [Compound I-19, 4-[2-(N-ethoxycarbonyl-N-trifluoromethanesulfonyl)aminobenzyl]-1,4-thiazinan-1,1-dioxide-3-one]
- A: barnyardgrass, herbicidal effect (evaluation scale 0-5) (barnyardgrass [1]): 5 (mortality of 90% or above (nearly complete death))
- B: bulrush, herbicidal effect (evaluation scale 0-5) (bulrush [2]): 5 (mortality of 90% or above (nearly complete death))
- C: ducksalad, herbicidal effect (evaluation scale 0-5) (ducksalad [3]): 5 (mortality of 90% or above (nearly complete death))
- a: transplanted rice, effect on crop (evaluation scale 0-5) (transplanted rice): 0 (mortality of less than 5% (almost ineffective))
- A: barnyardgrass, herbicidal effect (evaluation scale 0-5) (barnyardgrass [4]): 3 (mortality of at least 40% and less than 70%)
- B: bulrush, herbicidal effect (evaluation scale 0-5) (bulrush [5]): 5 (mortality of 90% or above (nearly complete death))
- C: ducksalad, herbicidal effect (evaluation scale 0-5) (ducksalad [6]): 4 (mortality of at least 70% and less than 90%)
- H: Italian ryegrass, herbicidal effect (evaluation scale 0-5) (Italian ryegrass [7]): 2 (mortality of at least 20% and less than 40%)
- A: barnyardgrass, herbicidal effect (evaluation scale 0-5) (barnyardgrass [8]): 4 (mortality of at least 70% and less than 90%)
- N: common chickweed, herbicidal effect (evaluation scale 0-5) (common chickweed [9]): 5 (mortality of 90% or above (nearly complete death))
- L: common lambsquater, herbicidal effect (evaluation scale 0-5) (common lambsquater [10]): 5 (mortality of 90% or above (nearly complete death))
- J: common ragweed, herbicidal effect (evaluation scale 0-5) (common ragweed [11]): 4 (mortality of at least 70% and less than 90%)
- E: giant foxtail, herbicidal effect (evaluation scale 0-5) (giant foxtail [12]): 4 (mortality of at least 70% and less than 90%)
- D: large crabgrass, herbicidal effect (evaluation scale 0-5) (large crabgrass [13]): 4 (mortality of at least 70% and less than 90%)
- M: posumbu knotweed, herbicidal effect (evaluation scale 0-5) (posumbu knotweed [14]): 4 (mortality of at least 70% and less than 90%)
- K: redroot pigweed, herbicidal effect (evaluation scale 0-5) (redroot pigweed [15]): 4 (mortality of at least 70% and less than 90%)
- I: velvetleaf, herbicidal effect (evaluation scale 0-5) (velvetleaf [16]): 2 (mortality of at least 20% and less than 40%)
- G: water foxtail, herbicidal effect (evaluation scale 0-5) (water foxtail [17]): 5 (mortality of 90% or above (nearly complete death))
- F: wild oat, herbicidal effect (evaluation scale 0-5) (wild oat [18]): 0 (mortality of less than 5% (almost ineffective))
- H: Italian ryegrass, herbicidal effect (Italian ryegrass [19]): 3 (mortality of at least 40% and less than 70%)
- A: barnyardgrass, herbicidal effect (barnyardgrass [20]): 4 (mortality of at least 70% and less than 90%)
- O: beadstraw, herbicidal effect (beadstraw): 4 (mortality of at least 70% and less than 90%)
- N: common chickweed, herbicidal effect (common chickweed [21]): 4 (mortality of at least 70% and less than 90%)
- L: common lambsquater, herbicidal effect (common lambsquater [22]): 4 (mortality of at least 70% and less than 90%)
- J: common ragweed, herbicidal effect (common ragweed [23]): 4 (mortality of at least 70% and less than 90%)
- E: giant foxtail, herbicidal effect (giant foxtail [24]): 4 (mortality of at least 70% and less than 90%)
- D: large crabgrass, herbicidal effect (large crabgrass [25]): 4 (mortality of at least 70% and less than 90%)
- M: posumbu knotweed, herbicidal effect (posumbu knotweed [26]): 3 (mortality of at least 40% and less than 70%)
- K: redroot pigweed, herbicidal effect (redroot pigweed [27]): 4 (mortality of at least 70% and less than 90%)
- I: velvetleaf, herbicidal effect (velvetleaf [28]): 3 (mortality of at least 40% and less than 70%)
- G: water foxtail, herbicidal effect (water foxtail [29]): 5 (mortality of 90% or above (nearly complete death))
- F: wild oat, herbicidal effect (wild oat [30]): 0 (mortality of less than 5% (almost ineffective))

Source: patent US20120029187A1, “HALOALKYLSULFONANILIDE DERIVATIVE” (Nissan Chemical Industries, Ltd., priority 2009, published 2012)
